Assay results published in patent US12564193B2, “Isoxazoline-substituted benzamide derivative, and preparation method therefor and use thereof” (SHANDONG UNITED PESTICIDE INDUSTRY CO., LTD., priority 2020, dated 2026).
Like-named read-outs stand apart in the source and are kept apart here.

Key:
Format in all cases: in vivo
[1] = tested on: Frankliniella occidentalis; experiment: Insecticidal activity, spray on pre-infested radish plants: Frankliniella occidentalis; conditions: for Fatality rate on Frankliniella occidentalis (%): Table 3; for pest or weed control at 1 ppm / pest or weed control at 10 ppm / pest or weed control at 25 ppm: Frankliniella occidentalis, 144 h, read-out: fatality rate on Frankliniella occidentalis
Method: (§1) For determination of insecticidal activity, the test method was as follows: a test solution with a desired concentration was prepared by dissolving a test compound sample in a suitable solvent (the kind of solvent was such as acetone, methanol, DMSO, etc., and was selected according to its dissolving ability for the sample). The test cell was composed of a small open container with 12-15 day old radish plants inside. The plants were pre-infested by placing 30-40 pests located on one leaf cut from the cultivated plant on one leaf of the test plant (leaf cutting method). As the leaves dehydrated, the pests moved on the test plants. After the pre-infesting, the soil of the test cells was covered with a layer of sand.
The test method was as follows: the test was repeated for three times, and after spraying the formulated test compound, each test unit was allowed to dry for 1 hour, and then a black mesh cover was placed at the top. The test units were kept in a growth chamber at 25° C. and 70% relative humidity for 6 days. The mortality (fatality rate) of the insects was then visually assessed for each test unit, and the fatality rate was calculated as follows:
[formula] (1) Test Results for the Control of Frankliniella occidentalis by Exemplary Example Compounds

Plutella xylostella = experiment: Insecticidal activity, spray on pre-infested radish plants: Plutella xylostella; conditions: for Fatality rate on Plutella xylostella (%): Table 3; for pest or weed control at 0.1 ppm / pest or weed control at 1 ppm / pest or weed control at 10 ppm: Plutella xylostella, 144 h, read-out: fatality rate on Plutella xylostella
Method: as §1
(§2) The test method was as follows: the test was repeated for three times, and after spraying the formulated test compound, each test unit was allowed to dry for 1 hour, and then a black mesh cover was placed at the top. The test units were kept in a growth chamber at 25° C. and 70% relative humidity for 6 days. The mortality (fatality rate) of the insects was then visually assessed for each test unit, and the fatality rate was calculated as follows: […]

Pieris rapae = experiment: Insecticidal activity, spray on pre-infested radish plants: Pieris rapae; conditions: 144 h, read-out: fatality rate on Pieris rapae
Method: as §1, §2

Mythimna separata = experiment: Insecticidal activity, spray on pre-infested radish plants: Mythimna separata; conditions: for Fatality rate on Mythimna separata (%): Table 3; for pest or weed control at 0.1 ppm / pest or weed control at 1 ppm / pest or weed control at 10 ppm: Mythimna separata, 144 h, read-out: fatality rate on Mythimna separata
Method: as §1, §2

Spodoptera litura = experiment: Insecticidal activity, spray on pre-infested radish plants: Spodoptera litura; conditions: 144 h, read-out: fatality rate on Spodoptera litura
Method: as §1, §2

Chilo suppressalis = experiment: Insecticidal activity, spray on pre-infested radish plants: Chilo suppressalis; conditions: for Fatality rate on Chilo suppressalis (%): Table 3; for pest or weed control at 0.1 ppm / pest or weed control at 1 ppm / pest or weed control at 10 ppm: Chilo suppressalis, 144 h, read-out: fatality rate on Chilo suppressalis
Method: as §1, §2

Cnaphalocrocis medinalis = experiment: Insecticidal activity, spray on pre-infested radish plants: Cnaphalocrocis medinalis; conditions: 144 h, read-out: fatality rate on Cnaphalocrocis medinalis
Method: as §1, §2

Tetranychus cinnabarinus = experiment: Acaricidal activity, slide immersion of female adult mites: Tetranychus cinnabarinus; conditions: read-out: fatality rate on Tetranychus cinnabarinus
Method: The test method was as follows: a test solution with a desired concentration was prepared by dissolving a test compound sample in a suitable solvent (the kind of solvent was such as acetone, methanol, DMSO, etc., and was selected according to its dissolving ability for the sample). A double-sided adhesive tape was cut into 2-3 cm long pieces, the pieces were attached to one end of a microscope slide, paper pieces on the adhesive tape were removed using tweezers, female adult mites which were consistent in size, bright in body color and lively in action were selected using a zero-size brush pen, the backs of the female adult mites were adhered to the double-sided adhesive tape (note: the adhesion should not cover mite feet, mite whiskers and mouthparts), with 4 rows of mites adhered to each piece and 10 heads of the mites adhered to each row.
One end of the glass slide with the mites was immersed into a drug liquid, with slightly shaking for 5 seconds, and then the slide was taken out. The excess drug liquid around the mite body and is surroundings is quickly sucked off using absorbent paper. The slide was placed in the biochemical incubator described above, and the results were checked by using binoculars after 24 hours. The mites were slightly touched by using a brush pen, the mites with immobility in feet were considered to be dead, and the fatality rate was calculated. The fatality rate was calculated as follows: […]

SMILES: Cc1cc(C2=NOC(c3cc(F)c(F)c(F)c3)(C(F)(F)F)C2)ccc1C(=O)NCc1ccc(Cl)nc1 (stereo not drawn) [Compound 2, N-((6-chloropyridin-3-yl)methyl)-2-methyl-4-(5-(trifluoromethyl)-5-(3,4,5-trifluorophenyl)-4,5-dihydroisoxazol-3-yl)benzamide]
- Fatality rate on Frankliniella occidentalis (%) ([1]; 1 ppm): 90%
- Fatality rate on Frankliniella occidentalis (%) ([1]; 10 ppm): 100%
- Fatality rate on Frankliniella occidentalis (%) ([1]; 25 ppm): 100%
- pest or weed control at 1 ppm ([1]; dose 1 ppm, spray, 6 days): > 80%
- pest or weed control at 10 ppm ([1]; dose 10 ppm, spray, 6 days): > 80%
- pest or weed control at 25 ppm ([1]; dose 25 ppm, spray, 6 days): > 80%
- Fatality rate on Plutella xylostella (%) (Plutella xylostella; 0.1 ppm): 85%
- Fatality rate on Plutella xylostella (%) (Plutella xylostella; 1 ppm): 100%
- Fatality rate on Plutella xylostella (%) (Plutella xylostella; 10 ppm): 100%
- pest or weed control at 0.1 ppm (Plutella xylostella; dose 0.1 ppm, spray, 6 days): > 80%
- pest or weed control at 1 ppm (Plutella xylostella; dose 1 ppm, spray, 6 days): > 80%
- pest or weed control at 10 ppm (Plutella xylostella; dose 10 ppm, spray, 6 days): > 80%
- pest or weed control at 0.1 ppm (Pieris rapae; dose 0.1 ppm, spray, 6 days): > 80%
- pest or weed control at 1 ppm (Pieris rapae; dose 1 ppm, spray, 6 days): > 80%
- pest or weed control at 10 ppm (Pieris rapae; dose 10 ppm, spray, 6 days): > 80%
- Fatality rate on Mythimna separata (%) (Mythimna separata; 0.1 ppm): 85%
- Fatality rate on Mythimna separata (%) (Mythimna separata; 1 ppm): 100%
- Fatality rate on Mythimna separata (%) (Mythimna separata; 10 ppm): 100%
- pest or weed control at 0.1 ppm (Mythimna separata; dose 0.1 ppm, spray, 6 days): > 80%
- pest or weed control at 1 ppm (Mythimna separata; dose 1 ppm, spray, 6 days): > 80%
- pest or weed control at 10 ppm (Mythimna separata; dose 10 ppm, spray, 6 days): > 80%
- pest or weed control at 0.1 ppm (Spodoptera litura; dose 0.1 ppm, spray, 6 days): > 80%
- pest or weed control at 1 ppm (Spodoptera litura; dose 1 ppm, spray, 6 days): > 80%
- pest or weed control at 10 ppm (Spodoptera litura; dose 10 ppm, spray, 6 days): > 80%
- Fatality rate on Chilo suppressalis (%) (Chilo suppressalis; 0.1 ppm): 80%
- Fatality rate on Chilo suppressalis (%) (Chilo suppressalis; 1 ppm): 100%
- Fatality rate on Chilo suppressalis (%) (Chilo suppressalis; 10 ppm): 100%
- pest or weed control at 0.1 ppm (Chilo suppressalis; dose 0.1 ppm, spray, 6 days): > 80%
- pest or weed control at 1 ppm (Chilo suppressalis; dose 1 ppm, spray, 6 days): > 80%
- pest or weed control at 10 ppm (Chilo suppressalis; dose 10 ppm, spray, 6 days): > 80%
- pest or weed control at 0.1 ppm (Cnaphalocrocis medinalis; dose 0.1 ppm, spray, 6 days): > 80%
- pest or weed control at 1 ppm (Cnaphalocrocis medinalis; dose 1 ppm, spray, 6 days): > 80%
- pest or weed control at 10 ppm (Cnaphalocrocis medinalis; dose 10 ppm, spray, 6 days): > 80%
- pest or weed control at 1 ppm (Tetranychus cinnabarinus; dose 1 ppm, immersion 5 seconds, checked after 24 hours): > 80%
- pest or weed control at 10 ppm (Tetranychus cinnabarinus; dose 10 ppm, immersion 5 seconds, checked after 24 hours): > 80%
- pest or weed control at 25 ppm (Tetranychus cinnabarinus; dose 25 ppm, immersion 5 seconds, checked after 24 hours): > 80%

SMILES: Cc1cc(C2=NOC(c3cc(Cl)c(F)c(Cl)c3)(C(F)(F)F)C2)ccc1C(=O)NCc1cnccc1C(F)(F)F (stereo not drawn) [Compound 3]
- pest or weed control at 1 ppm [1]: > 80%
- pest or weed control at 10 ppm [1]: > 80%
- pest or weed control at 25 ppm [1]: > 80%
- pest or weed control at 0.1 ppm (Plutella xylostella): > 80%
- pest or weed control at 1 ppm (Plutella xylostella): > 80%
- pest or weed control at 10 ppm (Plutella xylostella): > 80%
- pest or weed control at 0.1 ppm (Pieris rapae): > 80%
- pest or weed control at 1 ppm (Pieris rapae): > 80%
- pest or weed control at 10 ppm (Pieris rapae): > 80%
- pest or weed control at 0.1 ppm (Mythimna separata): > 80%
- pest or weed control at 1 ppm (Mythimna separata): > 80%
- pest or weed control at 10 ppm (Mythimna separata): > 80%
- pest or weed control at 0.1 ppm (Spodoptera litura): > 80%
- pest or weed control at 1 ppm (Spodoptera litura): > 80%
- pest or weed control at 10 ppm (Spodoptera litura): > 80%
- pest or weed control at 0.1 ppm (Chilo suppressalis): > 80%
- pest or weed control at 1 ppm (Chilo suppressalis): > 80%
- pest or weed control at 10 ppm (Chilo suppressalis): > 80%
- pest or weed control at 0.1 ppm (Cnaphalocrocis medinalis): > 80%
- pest or weed control at 1 ppm (Cnaphalocrocis medinalis): > 80%
- pest or weed control at 10 ppm (Cnaphalocrocis medinalis): > 80%
- pest or weed control at 1 ppm (Tetranychus cinnabarinus; 24 h): > 80%
- pest or weed control at 10 ppm (Tetranychus cinnabarinus; 24 h): > 80%
- pest or weed control at 25 ppm (Tetranychus cinnabarinus; 24 h): > 80%

SMILES: Cc1cc(C2=NOC(c3cc(Cl)c(F)c(Cl)c3)(C(F)(F)F)C2)ccc1C(=O)NCc1cnc(Cl)cc1C(F)(F)F (stereo not drawn) [Compound 5]
- pest or weed control at 1 ppm [1]: > 80%
- pest or weed control at 10 ppm [1]: > 80%
- pest or weed control at 25 ppm [1]: > 80%
- pest or weed control at 0.1 ppm (Plutella xylostella): > 80%
- pest or weed control at 1 ppm (Plutella xylostella): > 80%
- pest or weed control at 10 ppm (Plutella xylostella): > 80%
- pest or weed control at 0.1 ppm (Pieris rapae): > 80%
- pest or weed control at 1 ppm (Pieris rapae): > 80%
- pest or weed control at 10 ppm (Pieris rapae): > 80%
- pest or weed control at 0.1 ppm (Mythimna separata): > 80%
- pest or weed control at 1 ppm (Mythimna separata): > 80%
- pest or weed control at 10 ppm (Mythimna separata): > 80%
- pest or weed control at 0.1 ppm (Spodoptera litura): > 80%
- pest or weed control at 1 ppm (Spodoptera litura): > 80%
- pest or weed control at 10 ppm (Spodoptera litura): > 80%
- pest or weed control at 0.1 ppm (Chilo suppressalis): > 80%
- pest or weed control at 1 ppm (Chilo suppressalis): > 80%
- pest or weed control at 10 ppm (Chilo suppressalis): > 80%
- pest or weed control at 0.1 ppm (Cnaphalocrocis medinalis): > 80%
- pest or weed control at 1 ppm (Cnaphalocrocis medinalis): > 80%
- pest or weed control at 10 ppm (Cnaphalocrocis medinalis): > 80%
- pest or weed control at 1 ppm (Tetranychus cinnabarinus; 24 h): > 80%
- pest or weed control at 10 ppm (Tetranychus cinnabarinus; 24 h): > 80%
- pest or weed control at 25 ppm (Tetranychus cinnabarinus; 24 h): > 80%
